Results as given in EP0025528A1, “1-(2-Acetylphenylthio)-3-alkylamino-2-propanols and their acid-addition salts, process for their preparation and medicines containing them” (A. Nattermann & Cie. GmbH, priority 1979, dated 1981).
Read-outs that look alike come from different tables or passages of the source.

What was measured:
Narkotisierte Katze = test: Anaesthetised cat: inhibition of isoprenaline-induced tachycardia (competitive ß-adrenergic antagonism in vivo); parameters: species or system Katzen; conditions: Felis catus, read-out: ED50 Hemmung der Isoprenalin-induzierten Herzfrequenzsteigerung
Excerpt: Zum Nachweis des kompetitiven ß-adrenergischen Antagonismus in vivo wurden mischrassige Katzen beiderlei Geschlechts und in Chloralose-Pentobarbitalnarkose verwendet. […] Die Registrierung erfolgte über ein Stathamelement aus einem Beckman Dynograph Typ R. Aus der Blutdruckamplitude wurde mit Hilfe eines Kardiotachometers die Herzfrequenz abgenommen und auf einem weiteren Kanal des Dynographen aufgezeichnet. Die Applikation der Testlösungen erfolgte über einen Katheter in die linke Vena femoralis. Es wurde die inhibierende Wirkung ansteigender Testsubstanz-Dosen auf die durch i.v.Gabe von 0,5 gg Isoprenalin/kg Körpergewicht induzierte Tachykardie bzw. Hypotonie (Blutdrucksenkung) geprüft. Als ED50-Werte wurden in der Tabelle die Dosen der Referenz- bzw. erfindungsgemäßen Verbindung eingetragen, die die Isoprenalineffekte jeweils auf die Hälfte reduzierten.

Reserpinisierte Ratte = test: Intrinsic sympathomimetic activity (ISA) in reserpinised anaesthetised rat; assay type: in vivo, Wistar-Ratten; conditions: intravenous; maximal heart-rate increase (mean of 6 animals) relative to 1,0 µg Isoprenalin/kg i.v.; reserpine 5 mg/kg i.p. 24 h before
Experimental: Die Tiere bekamen 24 Stunden vor Versuchsbeginn 5 mg Reserpin/kg intraperitoneal. Die Herzfrequenz wurde aus der Blutdruckamplitude (Polyäthylenkatheter mit aufgesetztem Stathamelement in der rechten Arteria femoralis) mit Hilfe eines Kardiotachometers abgenommen und auf einem Schreiber fortlaufend registriert. Die Applikation der Testlösungen erfolgte über einen Katheter in der linken Vena femoralis. Es wurden von jeder Testverbindung vier ansteigende Dosen getrennt jeweils an sechs verschiedenen Tieren geprüft.
Die maximale Steigerung der Herzfrequenz (Mittelwert aus 6 Tieren) durch die einzelnen Testverbindungen wurde als Maß für ihre agonistische Aktivität genommen und in Prozent der Frequenzsteigerung durch 1,0 µg Isoprenalin/kg Körpergewicht i.v. errechnet.

in vivo = conditions: for LD50 at 168 h: mouse
Excerpt: Die akute Toxizität wurde an NMRI-Mäusen durch intravenöse bzw. orale Gabe von steigenden Dosen der erfindungsgemäßen Verbindung ermittelt.

[1] = intravenous, cat under chloralose-pentobarbital anaesthesia, isoprenaline 0,5 gg/kg i.v., dose halving the isoprenaline effect

In the case of `CC(=O)c1ccccc1SCC(O)CNC(C)(C)C` (racemic) [Beispiel 1, 1-(2-Acetylphenylthio)-3-tert.-butyl-amino-2-propanol], the ED50 (Narkotisierte Katze; [1]) is reported as 0.044 mg/kg, the “ß-sympathomimetische Eigenaktivität (ISA) in % der sympathomimetischen Aktivität von Isoprenalin” value (Reserpinisierte Ratte) is reported as 33% and the selectivity ratio (in vivo; iv) is reported as 2520. For the same compound, the LD50 at 168 h (in vivo; iv) was 111 mg/kg and the LD50 at 168 h (in vivo; po) was 667 mg/kg.
In the case of `CC(=O)Nc1ccc(OCC(O)CNC(C)C)cc1` (centres unmarked) [Practolol], the ED50 (Narkotisierte Katze; [1]) is reported as 0.144 mg/kg, the “ß-sympathomimetische Eigenaktivität (ISA) in % der sympathomimetischen Aktivität von Isoprenalin” value (Reserpinisierte Ratte) is reported as 54% and the selectivity ratio (in vivo; iv) is reported as 1030. For the same compound, the LD50 at 168 h (in vivo; iv) was 148 mg/kg.
With `CC(C)NCC(O)COc1cccc2ccccc12` (centres unmarked) [Propranolol] the ED50 (Narkotisierte Katze; iv) was 0.017 mg/kg and the “ß-sympathomimetische Eigenaktivität (ISA) in % der sympathomimetischen Aktivität von Isoprenalin” value (Reserpinisierte Ratte) was 0%.
